Measurements from US7241795B2, “Synthesis and antimicrobial activity of novel dicationic “reversed amidines”” (The University of North Carolina at Chapel Hill, priority 2000, dated 2007).
In brackets after ≈: the same amount, converted by molar mass. Read-outs that look alike come from different tables or passages of the source.

Assays:
Candida albicans = assay: Antifungal broth macrodilution susceptibility testing (MIC/MFC), yeast; format: cell-based; conditions: for MIC80 / MIC / MFC: Candida albicans; for MIC80: 80% of inoculum inhibited
poly dA•dT = assay: DNA thermal melting (ΔTm); format: binding
M. tuberculosis H37Rv = assay: Microplate Alamar Blue Assay (MABA) in BACTEC 12B medium; format: cell-based, Mycobacterium tuberculosis; conditions: Mycobacterium tuberculosis, H37RV; lowest concentration effecting ≧90% reduction of fluorescence; read-out: MTb MIC
d(CGCGAATTCGCG)2 = assay: DNA thermal melting (ΔTm); format: binding; conditions: oligo = d(CGCGAATTCGCG)2
Aspergillus flavus = assay: Expanded fungus panel, broth macrodilution (MIC/MFC), mold; format: cell-based; conditions: for MIC: Aspergillus flavus, 100% of inoculum inhibited
Rhizopus arrhizus = assay: as above; format: cell-based
Aspergillus fumigatus = assay: Antifungal broth macrodilution susceptibility testing (MIC/MFC), mold; format: cell-based; conditions: for MIC80: 80% of inoculum inhibited
Fusarium solani = assay: Expanded fungus panel, broth macrodilution (MIC/MFC), mold; format: cell-based
Crytococcus neoformans = assay: Expanded fungus panel, broth macrodilution (MIC/MFC), yeast; format: cell-based; conditions: Cryptococcus neoformans, Crytococcus neoformans isolate H99
other pathogenic fungi = assay: Expanded fungus panel, overall; format: cell-based
Description: Antifungal Test Organisms. The fungi used in this study for all the compounds in Table 1 included two reference strains C. albicans A39 and Aspergillus fumigatus (strain 168.95).
Medium. Antifungal susceptibility testing was performed with RPMI 1640 medium (Sigma Chemical Co., St. Louis, Mo.) with glutamine, but without sodium bicarbonate and buffered at pH 7.0 with 0.165 M morpholinopropanesulfonic acid.
Antifungal In Vitro Susceptibility Testing. Experiments for determination of MICs of yeasts were performed by the broth macrodilution method according to the recommendations of the National Committee for Clinical Laboratory Standards. See National Committee for Clinical Laboratory Standards. Reference method for broth dilution susceptibility testing of yeasts Document M27-T. Tentative standard, National Committee for Clinical Laboratory Standards, Wayne, Pa., 1995). […] Briefly, this method specifies the use of an inoculum grown at 35° C. and adjusted to a concentration of 0.5×10^3 to 2.5×10^3 CFU/ml, incubation of the culture at 35° C., and reading at 48 h for all yeasts except for C. neoformans, for which the results are interpreted at 72 h. […]
The minimum fungicidal concentration (MFC) was determined by plating 100 μl aliquots from tubes showing complete inhibition of growth on Sabouraud agar plates. The lowest drug concentration that yielded three or fewer colonies was recorded as the MFC. […]

[1] = reference strain C. albicans A39, read-out: C. albicans MFC
[2] = reference strain C. albicans A39, read-out: C. albicans MIC
[3] = Aspergillus flavus isolate 107.96
[4] = Aspergillus flavus isolate 141.88
[5] = Aspergillus fumigatus, strain 168.95, read-out: Aspergillus fumigatus MIC

In the case of `Cc1ccc(N=Nc2ccc(-c3ccc(-c4ccc(N=Nc5ccc(C)cn5)cc4C)o3)c(C)c2)nc1` [Compound 6j, 2,5-Bis[2-methyl-4-(5-methyl-2-pyridylimino)aminophenyl]furan], the “activity against C. albicans, in words” value (Candida albicans) is reported as “quite effective”, the MIC80 (Candida albicans; Candida albicans isolate 116.98) is reported as 1.56 µg/mL (≈ 3.21 µM) and the MIC (Candida albicans; Candida albicans isolate 116.98, 100% of inoculum inhibited, read-out: MIC 100%) is reported as 1.56 µg/mL (≈ 3.21 µM). The MFC (Candida albicans; Candida albicans isolate 116.98, read-out: MFC) was over 100 µg/mL, the MIC80 (Candida albicans; Candida albicans isolate 117.00) was 0.78 µg/mL (≈ 1.6 µM) and the MIC (Candida albicans; Candida albicans isolate 117.00, 100% of inoculum inhibited, read-out: MIC 100%) was 3.12 µg/mL (≈ 6.41 µM). It also gave an MFC (Candida albicans; Candida albicans isolate 117.00, read-out: MFC) of 25 µg/mL (≈ 51.4 µM), an MIC80 (Candida albicans; Candida albicans isolate 126.97) of 1.56 µg/mL (≈ 3.21 µM) and an MIC (Candida albicans; Candida albicans isolate 126.97, 100% of inoculum inhibited, read-out: MIC 100%) of 3.12 µg/mL (≈ 6.41 µM). For the same molecule, the MFC (Candida albicans; Candida albicans isolate 126.97, read-out: MFC) was 3.12 µg/mL (≈ 6.41 µM), the MIC80 (Candida albicans; Candida albicans isolate 149.97) was 0.78 µg/mL (≈ 1.6 µM) and the MIC (Candida albicans; Candida albicans isolate 149.97, 100% of inoculum inhibited, read-out: MIC 100%) was 1.56 µg/mL (≈ 3.21 µM). The MFC (Candida albicans; Candida albicans isolate 149.97, read-out: MFC) was 6.25 µg/mL (≈ 12.8 µM), the MIC80 (Candida albicans; Candida albicans isolate 156.97) was 1.56 µg/mL (≈ 3.21 µM) and the MIC (Candida albicans; Candida albicans isolate 156.97, 100% of inoculum inhibited, read-out: MIC 100%) was 3.15 µg/mL (≈ 6.47 µM). For the same molecule, the MFC (Candida albicans; Candida albicans isolate 156.97, read-out: MFC) was over 100 µg/mL, the MIC80 (Candida albicans; Candida albicans isolate 159.95) was 0.79 µg/mL (≈ 1.62 µM) and the MIC (Candida albicans; Candida albicans isolate 159.95, 100% of inoculum inhibited, read-out: MIC 100%) was 1.58 µg/mL (≈ 3.25 µM). The MFC (Candida albicans; Candida albicans isolate 159.95, read-out: MFC) was 3.12 µg/mL (≈ 6.41 µM), the MIC80 (Candida albicans; Candida albicans isolate A39) was 1.56 µg/mL (≈ 3.21 µM) and the MIC (Candida albicans; Candida albicans isolate A39, 100% of inoculum inhibited, read-out: MIC 100%) was 1.56 µg/mL (≈ 3.21 µM). The MFC (Candida albicans; Candida albicans isolate A39, expanded panel, read-out: MFC) was 25 µg/mL (≈ 51.4 µM), the MIC (Candida albicans; read-out: C. albicans MIC) was at most 1 µg/mL and the MFC (Candida albicans; [1]) was 10 µg/mL (≈ 20.6 µM). For the same molecule, the MIC (Candida albicans; [2]) was at most 2 µg/mL, the “DNA Affinities ΔTm (AT)” value (poly dA•dT) was 24.3 and the MIC (M. tuberculosis H37Rv) was 1 to 2 µg/mL (≈ 2.06 to 4.11 µM). The “DNA Affinities ΔTm (oligo)” value (d(CGCGAATTCGCG)2) was 10.8, the “activity versus Aspergillus flavus, in words” value (Aspergillus flavus) was “less effective” and the MFC (Aspergillus flavus; [3]) was over 100 µg/mL. For the same molecule, the “MIC 80%” value (Aspergillus flavus; Aspergillus flavus isolate 107.96, 80% of inoculum inhibited) was 3.12 µg/mL (≈ 6.41 µM), the MFC (Aspergillus flavus; [4]) was over 100 µg/mL and the “MIC 80%” value (Aspergillus flavus; Aspergillus flavus isolate 141.88, 80% of inoculum inhibited) was 3.12 µg/mL (≈ 6.41 µM). It also gave an MIC80 (Aspergillus flavus; Aspergillus flavus isolate 194.99, 80% of inoculum inhibited) of 3.12 µg/mL (≈ 6.41 µM), an MFC (Aspergillus flavus; Aspergillus flavus isolate 194.99, read-out: MFC) of over 100 µg/mL and an MIC (Aspergillus flavus; [3]) of 50 µg/mL (≈ 103 µM). The MIC (Aspergillus flavus; [4]) was 50 µg/mL (≈ 103 µM), the MIC (Aspergillus flavus; Aspergillus flavus isolate 194.99) was 6.25 µg/mL (≈ 12.8 µM) and the “activity versus Rhizopus arrhizus, in words” value (Rhizopus arrhizus) was “good fungicidal activity”. The MFC (Rhizopus arrhizus; Rhizopus arrhizus isolate 117.89) was 1.56 µg/mL (≈ 3.21 µM), the MIC80 (Rhizopus arrhizus; Rhizopus arrhizus isolate 117.89, 80% of inoculum inhibited) was 0.78 µg/mL (≈ 1.6 µM) and the MIC (Rhizopus arrhizus; Rhizopus arrhizus isolate 117.89, 100% of inoculum inhibited) was 1.56 µg/mL (≈ 3.21 µM). The “activity against Aspergillus fumigatus, in words” value (Aspergillus fumigatus) was “less effective”, the MFC (Aspergillus fumigatus; Aspergillus fumigatus isolate 119.00, read-out: MFC) was over 100 µg/mL and the MFC (Aspergillus fumigatus; Aspergillus fumigatus isolate 153.90) was over 100 µg/mL. It also gave an MFC (Aspergillus fumigatus; Aspergillus fumigatus isolate 165.86) of over 100 µg/mL, an MFC (Aspergillus fumigatus; Aspergillus fumigatus isolate 168.95, expanded panel) of over 100 µg/mL and an MFC (Aspergillus fumigatus; Aspergillus fumigatus isolate 182.99) of over 100 µg/mL. For the same molecule, the MIC80 (Aspergillus fumigatus; Aspergillus fumigatus, Aspergillus fumigatus isolate 119.00) was 3.12 µg/mL (≈ 6.41 µM), the MIC (Aspergillus fumigatus; Aspergillus fumigatus, Aspergillus fumigatus isolate 119.00, 100% of inoculum inhibited, read-out: MIC 100%) was 50 µg/mL (≈ 103 µM) and the MIC80 (Aspergillus fumigatus; Aspergillus fumigatus, Aspergillus fumigatus isolate 153.90) was 3.12 µg/mL (≈ 6.41 µM). It also gave an MIC (Aspergillus fumigatus; Aspergillus fumigatus, Aspergillus fumigatus isolate 153.90, 100% of inoculum inhibited, read-out: MIC 100%) of 50 µg/mL (≈ 103 µM), an MIC80 (Aspergillus fumigatus; Aspergillus fumigatus, Aspergillus fumigatus isolate 165.86) of 50 µg/mL (≈ 103 µM) and an MIC (Aspergillus fumigatus; Aspergillus fumigatus, Aspergillus fumigatus isolate 165.86, 100% of inoculum inhibited, read-out: MIC 100%) of 50 µg/mL (≈ 103 µM). The MIC80 (Aspergillus fumigatus; Aspergillus fumigatus, Aspergillus fumigatus isolate 168.95) was 50 µg/mL (≈ 103 µM), the MIC (Aspergillus fumigatus; Aspergillus fumigatus, Aspergillus fumigatus isolate 168.95, 100% of inoculum inhibited, read-out: MIC 100%) was 50 µg/mL (≈ 103 µM) and the MIC80 (Aspergillus fumigatus; Aspergillus fumigatus, Aspergillus fumigatus isolate 182.99) was 3.12 µg/mL (≈ 6.41 µM). The MIC (Aspergillus fumigatus; Aspergillus fumigatus, Aspergillus fumigatus isolate 182.99, 100% of inoculum inhibited, read-out: MIC 100%) was 50 µg/mL (≈ 103 µM), the MIC (Aspergillus fumigatus; [5]) was 10 µg/mL (≈ 20.6 µM) and the “activity against Fusarium solani, in words” value (Fusarium solani) was “not very effective”. The MFC (Fusarium solani; Fusarium solani isolate 152.89) was 50 µg/mL (≈ 103 µM), the MIC80 (Fusarium solani; Fusarium solani isolate 152.89, 80% of inoculum inhibited) was 3.12 µg/mL (≈ 6.41 µM) and the MIC (Fusarium solani; Fusarium solani isolate 152.89, 100% of inoculum inhibited) was 50 µg/mL (≈ 103 µM). It also gave an MFC (Crytococcus neoformans) of over 100 µg/mL, an MIC80 (Crytococcus neoformans; 80% of inoculum inhibited) of 1.56 µg/mL (≈ 3.21 µM) and an MIC (Crytococcus neoformans; 100% of inoculum inhibited) of 1.56 µg/mL (≈ 3.21 µM).
`COc1cc(N=Nc2ccccn2)ccc1-c1ccc(-c2ccc(N=Nc3ccccn3)cc2OC)o1` [Compound 6k, 2,5-Bis[2-methoxy-4-(2-pyridylimino)aminophenyl]furan] was tested, and the “activity against C. albicans, in words” value (Candida albicans) was “fungicidal”, the MIC (Candida albicans; read-out: C. albicans MIC) was at most 1 µg/mL and the MFC (Candida albicans; [1]) was at most 1 µg/mL. The MIC (Candida albicans; [2]) was at most 2 µg/mL, the “DNA Affinities ΔTm (AT)” value (poly dA•dT) was 19.0 and the MIC (M. tuberculosis H37Rv) was 1 to 2 µg/mL (≈ 2.04 to 4.08 µM). For the same molecule, the “DNA Affinities ΔTm (oligo)” value (d(CGCGAATTCGCG)2) was 7.8, the “activity against Aspergillus fumigatus, in words” value (Aspergillus fumigatus) was “fungicidal” and the MIC (Aspergillus fumigatus; Aspergillus fumigatus, read-out: Aspergillus fumigatus MIC) was at most 1 µg/mL. The MFC (Aspergillus fumigatus; Aspergillus fumigatus, strain 168.95, read-out: Aspergillus fumigatus MFC) was at most 1 µg/mL, the MIC (Aspergillus fumigatus; [5]) was 1 µg/mL (≈ 2.04 µM) and the “activity in the expanded fungus panel, in words” value (other pathogenic fungi) was “did not show significant activity”.
